# According to ChEMBL document CHEMBL5344444, “1-Benzylindoles as inhibitors of cytosolic phospholipase A2α: synthesis, biological activity, aqueous solubility, and cell permeability” (RSC Med Chem, 2024):
# Calls of active or inactive are those of the source. The calls are words filed in the database; no cut-off is given here.
# How the values were obtained:
# [1] = Aqueous solubility of compound in phosphate buffered saline at pH 7.4 incubated for 10 min by RP-HPLC analysis; type: physicochemical
# [2] = Apparent permeability coefficient in human CaCo-2 cells at 10 uM incubated for 2 hrs by HPLC-MS analysis; type: ADME, cell-based
# [3] = Lipophilicity, logP of compound in acetonitrile/phosphate buffered saline at pH 7.4 by RP-HPLC analysis; type: physicochemical
# Sus scrofa = species: Sus scrofa; test: Inhibition of porcine platelets cPLA2 alpha using 1-stearoyl-2-arachidonoyl-sn-glycero-3-phosphocholine as substrate at 10 uM incubated for 60 mins by RP-HPLC -MS analysis relative to control
# [4] = Inhibition of porcine platelets cPLA2 alpha using 1-stearoyl-2-arachidonoyl-sn-glycero-3-phosphocholine as substrate incubated for 60 mins by RP-HPLC -MS analysis; design: species or system Sus scrofa
# [5] = Drug metabolism in human CaCo-2 cells assessed as beta-oxidation of pentanoic acid chain by measuring 3-(5-{[5-Chloro-1-(2,4-dichlorobenzyl)indol-3-yl]methyl}-2H-tetrazol-2-yl) propionic acid formation at 10 uM; type: ADME, cell-based; conditions: caco-2, 10 µM
Structure (SMILES),inhibition (Sus scrofa),IC50 [4],also measured
COc1ccc2c(c1)c(CC(=O)O)c(C)n2C(=O)c1ccc(Cl)cc1 [INDOMETHACIN],–,–,"solubility at 10 min [1]: 0.26 mg/mL; Papp at 2 h, 10 µM [2]: 270 nm/s; logP [3]: 2.9"
O=C(O)c1ccc(OC(=O)c2cn(Cc3ccc(Cl)cc3Cl)c3ccccc23)cc1,45%,> 10 µM,–
O=C(O)CCCCn1nnc(Cc2cn(Cc3ccc(Cl)cc3Cl)c3ccc(OC(F)(F)F)cc23)n1,–,0.57 µM,–
O=C(O)c1ccc(N/N=C/c2cn(Cc3ccc(Oc4ccccc4)cc3)c3ccccc23)cc1,inactive,–,–
O=C(O)c1ccc2nn(CCc3cn(Cc4ccc(Cl)cc4Cl)c4ccccc34)cc2c1,32%,> 10 µM,–
O=C(O)CCCCn1nnc(Cc2cn(Cc3cccc(Cl)c3)c3ccccc23)n1,33%,> 10 µM,–
Cc1ccc2c(c1)c(Cc1nnn(CCCCC(=O)O)n1)cn2Cc1ccc(Cl)cc1Cl,–,0.21 µM,solubility at 10 min [1]: 0.015 mg/mL; logP [3]: 4.6
O=C(O)CCCCn1nnc(Cc2cn(Cc3ccc(Cl)cc3Cl)c3cc(Cl)ccc23)n1,–,0.36 µM,–
O=C(O)CCCCn1nnc(Cc2cn(Cc3ccc(Cl)cc3Cl)c3ccc(OCc4ccc(Cl)cc4)cc23)n1,–,5.3 µM,–
O=C(O)CCCCn1nnc(-c2cn(Cc3ccc(Cl)cc3Cl)c3ccccc23)n1,48%,> 10 µM,–
O=C(O)CCCn1nnc(-c2cn(Cc3ccc(Cl)cc3Cl)c3ccccc23)n1,22%,> 10 µM,–
O=C(O)CCCCn1nnc(Cc2cn(Cc3ccc(Cl)cc3Cl)c3cc(F)ccc23)n1,–,0.75 µM,–
O=C(O)CCCCn1nnc(Cc2cn(Cc3c(Cl)cccc3Cl)c3ccccc23)n1,19%,> 10 µM,–
O=C(O)CCCCn1nnc(Cc2cn(Cc3ccc(Cl)cc3Cl)c3ccc(Cl)cc23)n1,–,0.071 µM,"solubility at 10 min [1]: < 0.001 mg/mL; Drug metabolism [5]: Metabolite_Detected; Papp at 2 h, 10 µM [2]: 150 nm/s; logP [3]: 4.7"
O=C(O)c1ccc(N/N=C/c2cn(Cc3ccc(C(F)(F)F)cc3)c3ccccc23)cc1,15%,–,–
O=C(O)CCCn1nnc(Cc2cn(Cc3ccc(Cl)cc3Cl)c3ccccc23)n1,32%,> 10 µM,–
O=C(O)c1ccc(Cn2nnc(Cc3cn(Cc4ccc(Cl)cc4Cl)c4ccccc34)n2)cc1,–,2.8 µM,–
O=C(O)CCc1ccc2c(c1)c(CCc1ccccc1)cn2-c1ccc(Oc2ccccc2)cc1,–,0.29 µM,solubility at 10 min [1]: < 0.001 mg/mL; logP [3]: 6.4
O=C(O)CCCCn1nnc(CCc2cn(Cc3ccc(Cl)cc3Cl)c3ccccc23)n1,–,4.8 µM,–
O=C(O)c1ccc(N/N=C/c2cn(Cc3cccc(Oc4ccccc4)c3)c3ccccc23)cc1,17%,–,–

Structure (SMILES),inhibition (Sus scrofa),IC50 [4],also measured
O=C(O)c1ccc(N/N=C/c2cn(Cc3ccc(Cl)c(Cl)c3)c3ccccc23)cc1,20%,–,–
O=C(O)CCCCCn1nnc(-c2cn(Cc3ccc(Cl)cc3Cl)c3ccccc23)n1,–,9 µM,–
Cc1ccc(Cn2cc(Cc3nnn(CCCCC(=O)O)n3)c3ccccc32)cc1,–,7 µM,–
O=C(O)CCCCn1nnc(Cc2cn(Cc3ccc(-c4ccccc4)cc3)c3ccccc23)n1,47%,> 10 µM,–
O=C(O)CCCCn1nnc(Cc2cn(Cc3ccc(Cl)cc3Cl)c3cc(C(F)(F)F)ccc23)n1,–,0.17 µM,–
O=C(Cc1cn(Cc2ccc(Cl)cc2Cl)c2ccccc12)Oc1ccc(C(=O)O)cc1,–,3.2 µM,–
O=C(O)c1ccc2c(c1)c(C(=O)C(F)(F)F)cn2CCc1cn(Cc2ccc(Cl)cc2Cl)c2ccccc12,–,8 µM,–
Cc1noc(-c2cn(CCc3cn(Cc4ccc(Cl)cc4Cl)c4ccccc34)c3ccc(C(=O)O)cc23)n1,47%,> 10 µM,–
O=C(O)CCCCn1nnc(Cc2cn(Cc3ccc(C(F)(F)F)cc3)c3ccccc23)n1,inactive,–,–
O=C(O)c1ccc2c(cnn2CCc2cn(Cc3ccc(Cl)cc3Cl)c3ccccc23)c1,–,3.8 µM,–
O=C(O)c1ccc(N/N=C/c2ccc3ccn(Cc4ccc(Cl)cc4Cl)c3c2)cc1,32%,–,–
O=C(O)CCCCn1nnc(Cc2cn(Cc3ccc(Cl)c(Cl)c3)c3ccccc23)n1,–,5.6 µM,–
O=C(O)c1ccc(Cn2nnc(-c3cn(Cc4ccc(Cl)cc4Cl)c4ccccc34)n2)cc1,37%,> 10 µM,–
COc1ccc2c(Cc3nnn(CCCCC(=O)O)n3)cn(Cc3ccc(Cl)cc3Cl)c2c1,–,4.6 µM,–
O=C(O)c1ccc(N/N=C/c2cn(Cc3ccccc3Oc3ccccc3)c3ccccc23)cc1,15%,–,–
O=C(O)CCCCn1nnc(Cc2cn(Cc3ccc(Cl)cc3Cl)c3ccc(-c4ccccc4)cc23)n1,–,3.2 µM,–
O=C(O)CCCn1nnc(CCc2cn(Cc3ccc(Cl)cc3Cl)c3ccccc23)n1,23%,> 10 µM,–
COC(=O)c1cn(CCc2cn(Cc3ccc(Cl)cc3Cl)c3ccccc23)c2ccc(C(=O)O)cc12,–,7.1 µM,–
O=C(O)CCCCn1nnc(Cc2cn(Cc3ccc(Cl)cc3Cl)c3ccc(F)cc23)n1,–,0.2 µM,solubility at 10 min [1]: 0.074 mg/mL; logP [3]: 4.1
O=C(O)CCCCn1nnc(Cc2cn(Cc3ccc(F)cc3)c3ccccc23)n1,48%,> 10 µM,–

Structure (SMILES),inhibition (Sus scrofa),IC50 [4],also measured
O=C(O)c1ccc2c(ccn2CCc2cn(Cc3ccc(Cl)cc3Cl)c3ccccc23)c1,41%,> 10 µM,–
CN(/N=C/c1cn(Cc2ccc(Cl)cc2Cl)c2ccccc12)c1ccc(C(=O)O)cc1,27%,–,–
O=C(O)CCCCCn1nnc(Cc2cn(Cc3ccc(Cl)cc3Cl)c3ccccc23)n1,–,1.4 µM,–
O=C(O)CCCCn1nnc(Cc2cn(Cc3ccc(Cl)cc3)c3ccccc23)n1,–,4.2 µM,–
O=C(O)c1ccc(N/N=C/c2cn(Cc3ccccc3)c3ccccc23)cc1,16%,–,–
O=C(CCc1cn(Cc2ccc(Cl)cc2Cl)c2ccccc12)Oc1ccc(C(=O)O)cc1,–,6 µM,–
O=C(O)CCCCn1nnc(Cc2cn(Cc3ccc(Cl)cc3Cl)c3ccc(C(F)(F)F)cc23)n1,–,0.074 µM,solubility at 10 min [1]: < 0.001 mg/mL; logP [3]: 4.9
O=C(O)c1ccc(N/N=C/c2cn(Cc3ccc(Cl)cc3Cl)c3ccccc23)cc1,21%,22 µM,–
O=C(O)c1ccc(OCCc2cn(Cc3ccc(Cl)cc3Cl)c3ccccc23)cc1,–,1.1 µM,–
O=C(O)CCCCn1nnc(Cc2cn(Cc3ccccc3)c3ccccc23)n1,41%,> 10 µM,–
O=C(O)CCCCn1nnc(Cc2cn(Cc3ccc(Cl)cc3Cl)c3ccc(-c4ccc(Cl)cc4)cc23)n1,–,0.9 µM,–
O=C(O)c1ccc2c(c1)c(C(=O)O)cn2CCc1cn(Cc2ccc(Cl)cc2Cl)c2ccccc12,24%,> 10 µM,–
COc1ccc2c(c1)c(Cc1nnn(CCCCC(=O)O)n1)cn2Cc1ccc(Cl)cc1Cl,–,4.7 µM,–
Cc1ccc2c(Cc3nnn(CCCCC(=O)O)n3)cn(Cc3ccc(Cl)cc3Cl)c2c1,–,1 µM,–
O=C(O)CCCCn1nnc(Cc2cn(Cc3ccccc3Cl)c3ccccc23)n1,–,2.9 µM,–
O=C(O)c1ccc2nn(CCc3cn(Cc4ccc(Cl)cc4Cl)c4ccccc34)nc2c1,–,3.9 µM,–
Cc1c(CCOc2ccc(C(=O)O)cc2)c2cc(Cl)ccc2n1C(c1ccccc1)c1ccccc1,–,0.23 µM,solubility at 10 min [1]: < 0.001 mg/mL; logP [3]: 6.2
O=C(O)c1ccc(N/N=C/c2ccc3c(ccn3Cc3ccc(Cl)cc3Cl)c2)cc1,30%,–,–
O=C(O)CCCCn1nnc(Cc2cn(Cc3ccc(Cl)cc3Cl)c3ccccc23)n1,–,0.71 µM,solubility at 10 min [1]: 0.152 mg/mL; logP [3]: 4
O=C(O)c1ccc(N/N=C/c2cccc3c2ccn3Cc2ccc(Cl)cc2Cl)cc1,24%,–,–
